Structures can show the parent of a compound that is named as a salt.
target: recombinant HCV NS5B (HCV RNA-dependent RNA polymerase) (Hepatitis C virus genotype 1b, UniProt P26663); experiment: biochemical; conditions: HCV polymerase activity, list of compounds of Example 27; read-out: IC50 (polymerase activity)
Sequence (P26663 2420-3010 limits assumed): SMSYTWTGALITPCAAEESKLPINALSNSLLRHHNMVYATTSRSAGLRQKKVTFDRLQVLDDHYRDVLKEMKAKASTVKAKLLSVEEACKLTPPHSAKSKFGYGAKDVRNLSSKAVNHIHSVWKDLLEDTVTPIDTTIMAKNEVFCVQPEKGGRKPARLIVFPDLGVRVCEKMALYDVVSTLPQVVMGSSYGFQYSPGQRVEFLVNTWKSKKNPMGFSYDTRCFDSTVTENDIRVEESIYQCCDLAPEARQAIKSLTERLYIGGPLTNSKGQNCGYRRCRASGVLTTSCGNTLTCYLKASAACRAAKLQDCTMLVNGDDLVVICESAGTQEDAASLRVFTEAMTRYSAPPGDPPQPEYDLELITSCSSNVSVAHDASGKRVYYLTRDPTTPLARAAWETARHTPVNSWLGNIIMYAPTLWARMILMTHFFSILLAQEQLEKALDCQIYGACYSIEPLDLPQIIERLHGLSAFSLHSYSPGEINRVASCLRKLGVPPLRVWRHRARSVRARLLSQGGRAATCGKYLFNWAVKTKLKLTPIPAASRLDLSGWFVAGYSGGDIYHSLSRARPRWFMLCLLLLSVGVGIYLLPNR

| Structure (SMILES) | IC50 [µM] |
| --- | --- |
| CC(C)N(C(=O)C12CC3CC(CC(C3)C1)C2)c1cc(-c2ccccc2)sc1C(=O)O [Compound 424, 3-[(ADAMANTANE-1-CARBONYL)- ISOPROPYL-AMINO]-5-PHENYL- THIOPHENE-2-CARBOXYLIC ACID] | > 20 |
| Cc1cccc(CN(C(=O)C2CC2)c2cc(-c3ccccc3)sc2C(=O)O)c1 [Compound 466, 3-[CYCLOPROPANECARBONYL-(3- METHYL-BENZYL)-AMINO]-5-PHENYL- THIOPHENE-2-CARBOXYLIC ACID] | 5 to 20 |
| CCCC(=O)N(Cc1ccc(C(C)(C)C)cc1)c1cc(-c2ccccc2)sc1C(=O)O [Compound 440, 3-[(4-TERT-BUTYL-BENZYL)-BUTYRYL- AMINO]-5-PHENYL-THIOPHENE-2- CARBOXYLIC ACID] | 5 to 20 |
| COCC(C)N(C(=O)c1ccc(Cl)cc1Cl)c1cc(-c2ccccc2)sc1C(=O)O (stereo not shown) [Compound 561, 3-[(2,4-DICHLORO-BENZOYL)-(2- METHOXY-1-METHYL-ETHYL)-AMINO]-5- PHENYL-THIOPHENE-2-CARBOXYLIC ACID] | < 5 |
| CCCC(=O)N(Cc1ccccc1C)c1cc(-c2ccccc2)sc1C(=O)O [Compound 433, 3-[BUTYRYL-(2-METHYL-BENZYL)- AMINO]-5-PHENYL-THIOPHENE-2- CARBOXYLIC ACID] | 5 to 20 |
| CC(=O)N(Cc1ccc(F)cc1F)c1cc(-c2ccccc2)sc1C(=O)O [Compound 483, 3-[ACETYL-(2,4-DIFLUORO-BENZYL)- AMINO]-5-PHENYL-THIOPHENE-2- CARBOXYLIC ACID] | 5 to 20 |
| Cc1ccccc1S(=O)(=O)Nc1cc(Br)sc1C(=O)O [Compound 552, 5-BROMO-3-(TOLUENE-2- SULFONYLAMINO)-THIOPHENE-2- CARBOXYLIC ACID] | 5 to 20 |
| CC1CCC(C(=O)N(c2cc(-c3ccccc3)sc2C(=O)O)C2CCOCC2)CC1 (stereo not shown) [Compound 572, 3-[(4-METHYL- CYCLOHEXANECARBONYL)- (TETRAHYDRO-PYRAN-4-YL)-AMINO]-5- PHENYL-THIOPHENE-2-CARBOXYLIC ACID] | < 5 |
| CC(=O)N(Cc1ccc(C(F)(F)F)cc1)c1cc(-c2ccccc2)sc1C(=O)O [Compound 464, 3-[ACETYL-(4-TRIFLUOROMETHYL- BENZYL)-AMINO]-5-PHENYL-THIOPHENE- 2-CARBOXYLIC ACID] | 5 to 20 |
| O=C(O)c1sc(-c2ccccc2)cc1N(C(=O)c1ccc(Cl)cc1Cl)C1CC[C@@H](C(=O)O)C1 (stereo in doubt) [Compound 547, 3-[(3-CARBOXY-CYCLOPENTYL)-(2,4- DICHLORO-BENZOYL)-AMINO]-5- PHENYL-THIOPHENE-2-CARBOXYLIC ACID] | < 5 |
| CC1CCC(C(=O)N(c2cc(-c3ccccc3)sc2C(=O)O)C(C)C)C(O)C1 (stereo not shown) [Compound 409, 3-[(2-HYDROXY-4-METHYL- CYCLOHEXANECARBONYL)-ISOPROPYL- AMINO]-5-PHENYL-THIOPHENE-2- CARBOXYLIC ACID] | < 5 |
| O=C(O)c1sc(-c2ccccc2)cc1N(Cc1ccc(C(F)(F)F)cc1)C(=O)CC1CCCC1 [Compound 416, 3-[(2-CYCLOPENTYL-ACETYL)-(4- TRIFLUOROMETHYL-BENZYL)-AMINO]-5- PHENYL-THIOPHENE-2-CARBOXYLIC ACID] | 5 to 20 |
| CC(C)(C)c1ccc(CN(C(=O)C2CCC2)c2cc(-c3ccccc3)sc2C(=O)O)cc1 [Compound 439, 3-[(4-TERT-BUTYL-BENZYL)- CYCLOBUTANECARBONYL-AMINO]-5- PHENYL-THIOPHENE-2-CARBOXYLIC ACID] | < 5 |
| O=C(O)c1sc(-c2ccccc2)cc1N(C(=O)c1ccc(Cl)cc1Cl)C(CO)CO [Compound 518, 3-[(2,4-DICHLORO-BENZOYL)-(2- HYDROXY-1-HYDROXYMETHYL-ETHYL)- AMINO]-5-PHENYL-THIOPHENE-2- CARBOXYLIC ACID] | < 5 |
| CCC1CCC(C(=O)N(c2cc(-c3ccccc3)sc2C(=O)O)C(C)C)CC1 (stereo not shown) [Compound 531, 3-[(4-ETHYL-CYCLOHEXANECARBONYL)- ISOPROPYL-AMINO]-5-PHENYL- THIOPHENE-2-CARBOXYLIC ACID] | < 5 |

same assay, conditions: related polymerase activity (Example 27 list); read-out: IC50

| Structure (SMILES) | IC50 [µM] |
| --- | --- |
| O=C(O)c1sc(-c2ccccc2)cc1NS(=O)(=O)c1ccc([N+](=O)[O-])cc1 [Compound 148, 3-(4-NITRO-BENZENESULFONYLAMINO)-5-PHENYL-THIOPHENE-2-CARBOXYLIC ACID] | 5 to 20 |
| Cc1cc(C(=O)N(C)c2cc(-c3ccccc3)sc2C(=O)O)ccc1Br [Compound 255, 3-[(4-BROMO-3-METHYL-BENZOYL)-METHYL-AMINO]-5-PHENYL-THIOPHENE-2-CARBOXYLIC ACID] | < 5 |
| CC(C)CC(=O)N(C)c1cc(-c2ccccc2)sc1C(=O)O [Compound 172, 3-[METHYL-(3-METHYL-BUTYRYL)-AMINO]-5-PHENYL-THIOPHENE-2-CARBOXYLIC ACID] | < 5 |
| C=CCN(C(=O)c1ccc(C)cc1)c1cc(-c2ccc(/C=C/C(=O)O)cc2)sc1C(=O)O [Compound 312, 3-[ALLYL-(4-METHYL-BENZOYL)-AMINO]- 5-[4-(2-CARBOXY-VINYL)-PHENYL]- THIOPHENE-2-CARBOXYLIC ACID] | < 5 |
| O=C(Nc1cc(-c2ccccc2)sc1C(=O)O)Oc1ccc(Cl)cc1 [Compound 33, 3-(4-CHLORO-PHENOXYCARBONYLAMINO)-5-PHENYL-THIOPHENE-2-CARBOXYLIC ACID] | 5 to 20 |
| CC(C)(C)c1cc(NS(=O)(=O)c2ccc(Cl)cc2)c(C(=O)O)s1 [Compound 10, 5-TERT-BUTYL-3-(4-CHLORO-BENZENESULFONYLAMINO)-THIOPHENE-2-CARBOXYLIC ACID] | < 5 |
| Cc1ccccc1S(=O)(=O)Nc1cc(-c2ccccc2F)sc1C(=O)O [Compound 101, 5-(2-FLUORO-PHENYL)-3-(TOLUENE-2-SULFONYLAMINO)-THIOPHENE-2-CARBOXYLIC ACID] | < 5 |
| CC(C)N(C(=O)c1ccc(Cl)cc1F)c1cc(-c2ccccc2)sc1C(=O)O [Compound 307, 3-[(4-CHLORO-2-FLUORO-BENZOYL)- ISOPROPYL-AMINO]-5-PHENYL- THIOPHENE-2-CARBOXYLIC ACID] | < 5 |
| CC(C(=O)O)N(C(=O)c1ccc(Cl)cc1Cl)c1cc(-c2ccccc2)sc1C(=O)O (stereo not shown) [Compound 299, 3-[(1-CARBOXY-ETHYL)-(2,4-DICHLORO- BENZOYL)-AMINO]-5-PHENYL- THIOPHENE-2-CARBOXYLIC ACID] | < 5 |
| Cc1ccc(S(=O)(=O)Nc2cc(-c3ccc(C#N)cc3)sc2C(=O)O)cc1 [Compound 290, 5-(4-CYANO-PHENYL)-3-(TOLUENE-4-SULFONYLAMINO)-THIOPHENE-2-CARBOXYLIC ACID] | 5 to 20 |
| CC(C)CCC(=O)N(C)c1cc(-c2ccccc2)sc1C(=O)O [Compound 390, 3-[METHYL-(4-METHYL-PENTANOYL)- AMINO]-5-PHENYL-THIOPHENE-2- CARBOXYLIC ACID] | 5 to 20 |
| CCC(C)N(C(=O)c1ccc(Cl)cc1Cl)c1cc(-c2ccccc2)sc1C(=O)O (stereo not shown) [Compound 261, 3-[SEC-BUTYL-(2,4-DICHLORO-BENZOYL)-AMINO]-5-PHENYL-THIOPHENE-2-CARBOXYLIC ACID] | < 5 |
| O=C(O)c1sc(-c2ccccc2)cc1NS(=O)(=O)c1ccccc1 [Compound 17, 3-BENZENESULFONYLAMINO-5-PHENYL-THIOPHENE-2-CARBOXYLIC ACID] | 5 to 20 |
| O=C(O)c1sc(-c2ccccc2)cc1NC(=O)N1CCN(Cc2ccc(Cl)cc2)CC1 [Compound 183, 3-{[4-(4-CHLORO-BENZYL)-PIPERAZINE-1-CARBONYL]-AMINO}-5-PHENYL-THIOPHENE-2-CARBOXYLIC ACID HYDROCHLORIDE] | 5 to 20 |
| O=C(O)c1sc(-c2ccccc2)cc1N(Cc1ccc(-c2ccc(F)c(Cl)c2)s1)C(=O)c1ccc(Cl)cc1Cl [Compound 111, 3-[[5-(3-CHLORO-4-FLUORO-PHENYL)-THIOPHEN-2-YLMETHYL]-(2,4-DICHLORO-BENZOYL)-AMINO]-5-PHENYL-THIOPHENE-2-CARBOXYLIC ACID] | < 5 |
| O=C(O)c1sc(-c2ccccc2)cc1NS(=O)(=O)c1ccc(C(F)(F)F)cn1 [Compound 98, 5-PHENYL-3-(5-TRIFLUOROMETHYL-PYRIDINE-2-SULFONYLAMINO)-THIOPHENE-2-CARBOXYLIC ACID] | 5 to 20 |
| COc1ccc(-c2cc(N(C)C(=O)c3ccc(C)cc3)c(C(=O)O)s2)cc1 [Compound 198, 5-(4-METHOXY-PHENYL)-3-[METHYL-(4-METHYL-BENZOYL)-AMINO]-THIOPHENE-2-CARBOXYLIC ACID] | 5 to 20 |
| Cc1ccccc1S(=O)(=O)Nc1cc(-c2ccc(Cl)s2)sc1C(=O)O [Compound 57, 5′-CHLORO-4-(TOLUENE-2-SULFONYLAMINO)-[2,2′]BITHIOPHENYL-5-CARBOXYLIC ACID] | < 5 |
| Cc1ccccc1S(=O)(=O)Nc1cc(-c2ccncc2)sc1C(=O)O [Compound 86, 5-PYRIDIN-4-YL-3-(TOLUENE-2-SULFONYLAMINO)-THIOPHENE-2-CARBOXYLIC ACID] | < 5 |
| CC(=O)c1ccc(S(=O)(=O)Nc2cc(-c3ccccc3)sc2C(=O)O)cc1 [Compound 140, 3-(4-ACETYL-BENZENESULFONYLAMINO)-5-PHENYL-THIOPHENE-2-CARBOXYLIC ACID] | 5 to 20 |
| Cc1ccc(C(=O)N(C)c2cc(-c3cccc(O)c3)sc2C(=O)O)cc1 [Compound 273, 5-(3-HYDROXY-PHENYL)-3-[METHYL-(4-METHYL-BENZOYL)-AMINO]-THIOPHENE-2-CARBOXYLIC ACID] | < 5 |
| Cc1ccccc1S(=O)(=O)Nc1cc(-c2cccc3cccnc23)sc1C(=O)O [Compound 61, 5-QUINOLIN-8-YL-3-(TOLUENE-2-SULFONYLAMINO)-THIOPHENE-2-CARBOXYLIC ACID] | > 20 |
| CC(C)=CCN(C(=O)c1ccc(Cl)cc1Cl)c1cc(-c2ccccc2)sc1C(=O)O [Compound 244, 3-[(2,4-DICHLORO-BENZOYL)-(3-METHYL-BUT-2-ENYL)-AMINO]-5-PHENYL-THIOPHENE-2-CARBOXYLIC ACID] | < 5 |
| Cc1ccc(C(=O)N(C)c2cc(-c3ccccc3C)sc2C(=O)O)cc1 [Compound 267, 3-[METHYL-(4-METHYL-BENZOYL)-AMINO]-5-O-TOLYL-THIOPHENE-2-CARBOXYLIC ACID] | < 5 |
| COc1cccc(-c2cc(NS(=O)(=O)c3ccccc3C)c(C(=O)O)s2)c1 [Compound 123, 5-(3-METHOXY-PHENYL)-3-(TOLUENE-2-SULFONYLAMINO)-THIOPHENE-2-CARBOXYLIC ACID] | < 5 |
